In patent publication US6313090A, “Methods for treating parasitic infection using thiopeptides” (The United States of America as represented by the …, priority 2000, dated 2001):

System: MDBKF5D2 cell monolayers
Assay: Toxicity testing assay (MTS/PMS, OD 490 nm)
Format: cell-based
Experimental: (§1) Toxicity Testing Assay. 200 μl of medium containing drug at the above-mentioned concentrations and positive control preparations [paromomycin/DMSO (2 mg/ml/0.2%)] were introduced into two wells of a 96 well plate containing confluent MDBKF5D2 cell monolayers (ATCC accession number CCL-22) infected with intact C. parvum GCH1 oocysts (5.0×10^4 per well) (43) and two wells without monolayers. The drug was incubated on the monolayers at 37° C. and 8% CO2. At 48 hours, MTS (Owen's solution) and PMS were added to each well at concentrations of 333 μg/ml and 25 μM respectively. The plate was returned to the incubator in the dark to develop for two hours. At two hours, 100 μl of each supernatant was transferred to a new microtiter plate and the optical density (OD) was read in an ELISA plate reader at 490 nm.
Percent toxicity was calculated by subtracting the mean drug OD from the medium OD, divided by the medium OD, all of which was then multiplied by 100, as shown in the equation below. Cytotoxicity scores were assigned as follows: 0-5% toxicity=0, 6-25% toxicity=1, 26-50% toxicity=2, 51-75% toxicity=3, and 76-100% toxicity=4. As a standard, cytotoxicity scores of 0 or, 1 were considered acceptable levels of toxicity. Toxicity scores of 2, 3, or 4 were considered as high levels of toxicity to the cell monolayer. [formula]
as §1, with “containing drugs” for “containing drug”, “monolayers” for “monolayers (ATCC accession number CCL-22)”, “well)” for “well) (43)”, “and 25μM” for “and 25 μM”
Percent toxicity was calculated by subtracting the mean drug OD from the medium OD, divided by the medium OD, all of which was then multiplied by 100, as shown in the equation below. Cytotoxicity scores were assigned as follows: 0-5% toxicity=0, 6-25% toxicity=1, 26-50% toxicity=2, 51-75% toxicity=3, and 76-100% toxicity=4. As a standard, cytotoxicity scores of 0 or 1 were considered acceptable levels of toxicity. Toxicity scores of 2, 3, or 4 were considered as high levels of toxicity to the cell monolayer. [formula]
as §1, with “monolayers” for “monolayers (ATCC accession number CCL-22)”, “well)” for “well) (43)”, “25μM” for “25 μM”

[1] = Table 2, 2 mg/ml, listed as PRM/DMSO
[2] = Table 4 Washed at 4 hours, 250 μg/ml
[3] = Table 4 Washed at 4 hours, 500 μg/ml
[4] = Table 4 Washed at 4 hours, 1000 μg/ml
[5] = Table 4 Washed at 4 hours, 2000 μg/ml
[6] = Table 5, 2000 μg/ml, drug added at 0 hrs
[7] = Table 5, 2000 μg/ml, drug added at 2 hrs
[8] = Table 5, 2000 μg/ml, drug added at 4 hrs
[9] = Table 5, 2000 μg/ml, drug added at 8 hrs
[10] = Table 5, 2000 μg/ml, drug added at 24 hrs

Q: For `NC[C@@H]1O[C@H](O[C@H]2[C@@H](O)[C@H](O[C@@H]3[C@@H](O)[C@H](N)C[C@H](N)[C@H]3O[C@H]3O[C@H](CO)[C@@H](O)[C@H](O)[C@H]3N)O[C@@H]2CO)[C@H](N)[C@@H](O)[C@@H]1O` [PRM, paromomycin], which “Tox. O.D.” value (Table 1, 2000 μg/ml) is on record?
A: The value was “.868”.

Q: What about the “Toxicity Percent” value (Table 1, 2000 μg/ml) of the same compound?
A: Its value is 21.09%.

Q: And the “Toxicity Score” value (Table 1, 2000 μg/ml)?
A: Its value is 1 (6-25% toxicity=1).

Q: And the “Tox. O.D.” value (Table 2, 2 mg/ml)?
A: The value was “.954”.

Q: What about the “Toxicity Percent” value (Table 2, 2 mg/ml) of the same compound?
A: The value was -4.38%.

Q: What about the “Toxicity Score” value (Table 2, 2 mg/ml) of the same compound?
A: Its value is 0 (0-5% toxicity=0).

Q: What about the “Tox. O.D.” value [1] of the same compound?
A: Its value is “.963”.

Q: What about the “Toxicity Percent” value [1] of the same compound?
A: The value was 4.37%.

Q: What about the “Tox. O.D.” value (Table 3 Unwashed, 250 μg/ml) of the same compound?
A: Its value is 1.121.

Q: What about the “Toxicity Percent” value (Table 3 Unwashed, 250 μg/ml) of the same compound?
A: The value was -7.53%.

Q: What about the “Toxicity Score” value (Table 3 Unwashed, 250 μg/ml) of the same compound?
A: Its value is 0 (0-5% toxicity=0).

Q: And the “Tox. O.D.” value (Table 3 Unwashed, 500 μg/ml)?
A: Its value is 1.019.

Q: And the “Toxicity Percent” value (Table 3 Unwashed, 500 μg/ml)?
A: Its value is 2.30%.

Q: And the “Toxicity Score” value (Table 3 Unwashed, 500 μg/ml)?
A: Its value is 0 (0-5% toxicity=0).

Q: And the “Tox. O.D.” value (Table 3 Unwashed, 1000 μg/ml)?
A: The value was “.963”.

Q: And the “Toxicity Percent” value (Table 3 Unwashed, 1000 μg/ml)?
A: The value was 7.67%.

Q: And the “Toxicity Score” value (Table 3 Unwashed, 1000 μg/ml)?
A: Its value is 1 (6-25% toxicity=1).

Q: What about the “Tox. O.D.” value (Table 3 Unwashed, 2000 μg/ml) of the same compound?
A: The value was 1.061.

Q: What about the “Toxicity Percent” value (Table 3 Unwashed, 2000 μg/ml) of the same compound?
A: The value was -1.73%.

Q: What about the “Toxicity Score” value (Table 3 Unwashed, 2000 μg/ml) of the same compound?
A: The value was 0 (0-5% toxicity=0).

Q: What about the “Tox. O.D.” value [2] of the same compound?
A: Its value is 1.121.

Q: What about the “Toxicity Percent” value [2] of the same compound?
A: The value was -7.68%.

Q: And the “Toxicity Score” value [2]?
A: Its value is 0 (0-5% toxicity=0).

Q: What about the “Tox. O.D.” value [3] of the same compound?
A: Its value is 1.019.

Q: And the “Toxicity Percent” value [3]?
A: The value was 2.16%.

Q: What about the “Toxicity Score” value [3] of the same compound?
A: The value was 0 (0-5% toxicity=0).

Q: What about the “Tox. O.D.” value [4] of the same compound?
A: Its value is “.963”.

Q: What about the “Toxicity Percent” value [4] of the same compound?
A: Its value is 7.54%.

Q: What about the “Toxicity Score” value [4] of the same compound?
A: The value was 1 (6-25% toxicity=1).

Q: What about the “Tox. O.D.” value [5] of the same compound?
A: Its value is 1.061.

Q: And the “Toxicity Percent” value [5]?
A: Its value is -1.87%.

Q: And the “Toxicity Score” value [5]?
A: The value was 0 (0-5% toxicity=0).

Q: What about the “Tox. O.D.” value [6] of the same compound?
A: The value was “.962”.

Q: What about the “Toxicity Percent” value [6] of the same compound?
A: Its value is 16.17%.

Q: And the “Toxicity Score” value [6]?
A: Its value is 1 (6-25% toxicity=1).

Q: What about the “Tox. O.D.” value [7] of the same compound?
A: The value was “.878”.

Q: What about the “Toxicity Percent” value [7] of the same compound?
A: Its value is 23.49%.

Q: And the “Toxicity Score” value [7]?
A: The value was 1 (6-25% toxicity=1).

Q: What about the “Tox. O.D.” value [8] of the same compound?
A: Its value is “.923”.

Q: What about the “Toxicity Percent” value [8] of the same compound?
A: Its value is 19.56%.

Q: And the “Toxicity Score” value [8]?
A: The value was 1 (6-25% toxicity=1).

Q: What about the “Tox. O.D.” value [9] of the same compound?
A: Its value is “.871”.

Q: What about the “Toxicity Percent” value [9] of the same compound?
A: The value was 24.05%.

Q: What about the “Toxicity Score” value [9] of the same compound?
A: The value was 1 (6-25% toxicity=1).

Q: What about the “Tox. O.D.” value [10] of the same compound?
A: Its value is “.850”.

Q: What about the “Toxicity Percent” value [10] of the same compound?
A: The value was 25.93%.

Q: What about the “Toxicity Score” value [10] of the same compound?
A: Its value is 1 (6-25% toxicity=1).

Q: What about the “Tox. O.D.” value (Table 6, 2 mg/ml) of the same compound?
A: Its value is 1.273.

Q: And the “Toxicity Percent” value (Table 6, 2 mg/ml)?
A: The value was 22.74%.

Q: What about the “Toxicity Score” value (Table 6, 2 mg/ml) of the same compound?
A: The value was 1 (6-25% toxicity=1).
